Assays:
[1] = molecular target: CDK2/CyclinA2 (Homo sapiens (Human), UniProt P24941); experiment: CDK2/CyclinA2 enzyme activity test (ADP-Glo); assay type: biochemical; settings: 50 μM ATP, 25° C. 60 minutes, read-out: CDK2/Cyclin A2 IC50
Experimental: CDK2/CyclinA2 Enzyme Reaction System
(§1) Enzymes, substrates, ATP, and inhibitors were diluted by kinase buffer in the kit. The compounds to be tested were diluted 5-fold with a multi-channel pipette to the eighth concentration, that is, from 50 μM to 0.65 nM, the concentration of DMSO was 5%, and a double-hole experiment was set up. 1 μL of each concentration gradient of inhibitors, 2 μL of CDK2/CyclinA2 enzyme (1.6 ng), 2 μL mixture of substrate and ATP (50 μM ATP, 0.1 μg/μL substrate) were added to the microplates, and the final concentration gradient of the compound was 10 μM to 0.13 nM. The reaction system was reacted at 25° C. for 60 minutes. After the reaction, 5 μL of ADP-Glo reagent was added to each well, the reaction was carried out at 25° C. for 40 minutes, after the reaction was completed, 10 μL of kinase detection reagent was added to each well, the reaction was carried out at 25° C. for 30 minutes, the multiple label analyzer was used to read the chemiluminescence with an integration time of 0.5 seconds
(§2) The equation (Sample−Min)/(Max−Min)*100% was used to convert the raw data into inhibition rate, and the value of IC50 can be obtained by curve fitting with four parameters (obtained by log (inhibitor) vs. response-Variable slope mode in GraphPad Prism). The enzymatic inhibitory activity of the compounds of the present disclosure on CDK1/CyclinB1, CDK2/CyclinA2, CDK2/CyclinE1, CDK4/CyclinD1, CDK6/CyclinD1, CDK7/CyclinH/MAT1, CDK9/CyclinT1 was provided in Table 1.

[2] = molecular target: CDK4/CyclinD1 (Homo sapiens (Human), UniProt P11802); experiment: CDK4/CyclinD1 enzyme activity test (LANCE Ultra TR-FRET); assay type: biochemical; settings: 350 μM ATP, 25° C. 120 minutes, read-out: CDK4/Cyclin D1 IC50
Sequence of CDK4/CyclinD1 (P11802 whole entry): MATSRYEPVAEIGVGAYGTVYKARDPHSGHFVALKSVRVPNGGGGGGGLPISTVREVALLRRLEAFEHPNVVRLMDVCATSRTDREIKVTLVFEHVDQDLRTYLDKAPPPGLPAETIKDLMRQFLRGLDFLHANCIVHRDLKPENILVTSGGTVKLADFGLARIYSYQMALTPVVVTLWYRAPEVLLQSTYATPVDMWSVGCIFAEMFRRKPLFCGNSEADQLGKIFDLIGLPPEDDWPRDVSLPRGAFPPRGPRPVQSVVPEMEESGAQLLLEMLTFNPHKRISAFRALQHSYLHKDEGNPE
Sequence of CDK4/CyclinD1 (P24385 whole entry partner): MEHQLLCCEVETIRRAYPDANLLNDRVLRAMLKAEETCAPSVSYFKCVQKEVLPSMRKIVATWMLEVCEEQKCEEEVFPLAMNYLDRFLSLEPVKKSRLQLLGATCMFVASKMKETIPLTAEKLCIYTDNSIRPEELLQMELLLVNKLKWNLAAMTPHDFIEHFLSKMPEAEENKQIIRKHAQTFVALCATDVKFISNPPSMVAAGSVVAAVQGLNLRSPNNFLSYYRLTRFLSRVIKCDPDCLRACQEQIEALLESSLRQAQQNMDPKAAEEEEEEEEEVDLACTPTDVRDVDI
Experimental: CDK4/CyclinD1 Enzyme Reaction System
(§3) Preparation of Kinase Buffer:
(§4) The composition of the buffer: 50 mM of hydroxyethylpiperazine ethanesulfonic acid solution at pH 7.5, 1 mM of ethylenediaminetetraacetic acid, 10 mM of magnesium chloride, 0.01% Brij-35, and 2 mM of dithiothreitol.
(§5) Enzymes, substrate LANCE Ultra ULight™-4E-BP-1(Thr37146) Peptide, ATP, and inhibitors were diluted by kinase buffer.
(§6) The compounds to be tested were diluted 5-fold with a multi-channel pipette to the eighth concentration, that is, from 40 μM to 0.512 nM, the concentration of DMSO was 4%, and a double-hole experiment was set up. […] The reaction system was reacted at 25° C. for 120 minutes. After the reaction, 5 μL mixture of EDTA and 2× LANCE™ Detection Buffer (1:1) were added to each well, the reaction was carried out at 25° C. for 5 minutes, after the reaction was completed, 5 μL of LANCE Ultra Eu-anti-P-4E-BP1(Thr37MS) (4 nM) was added to each well, the reaction was carried out at 25° C. for 60 minutes, the reaction signal was detected by Nivo instrument according to the principle of time-resolved fluorescence resonance energy transfer.
as §2

[3] = molecular target: CDK6/CyclinD1 (Homo sapiens (Human), UniProt Q00534); experiment: CDK6/CyclinD1 enzyme activity test (LANCE Ultra TR-FRET); assay type: biochemical; settings: 250 μM ATP, 25° C. 120 minutes, read-out: CDK6/Cyclin D1 IC50
Sequence of CDK6/CyclinD1 (Q00534 whole entry): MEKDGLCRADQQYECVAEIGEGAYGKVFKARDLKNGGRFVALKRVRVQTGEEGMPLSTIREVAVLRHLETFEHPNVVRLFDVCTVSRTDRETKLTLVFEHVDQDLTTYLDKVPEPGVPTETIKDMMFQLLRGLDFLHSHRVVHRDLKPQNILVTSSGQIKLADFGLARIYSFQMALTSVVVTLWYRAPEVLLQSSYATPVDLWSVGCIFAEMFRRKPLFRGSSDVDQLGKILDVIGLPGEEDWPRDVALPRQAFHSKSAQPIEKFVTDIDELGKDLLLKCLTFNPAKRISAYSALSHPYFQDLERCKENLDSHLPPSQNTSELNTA
Sequence of CDK6/CyclinD1 (P24385 whole entry partner): as the sequence (P24385 whole entry partner) above
Experimental: CDK6/CyclinD1 Enzyme Reaction System
as §3, §4, §5, §6, §2

[4] = molecular target: CDK1/CyclinB1 (Homo sapiens (Human), UniProt P06493); experiment: CDK1/CyclinB1 enzyme activity test (ADP-Glo); assay type: biochemical; settings: 25 μM ATP, 25° C. 120 minutes, read-out: CDK1/Cyclin B IC50
Sequence of CDK1/CyclinB1 (P06493 whole entry): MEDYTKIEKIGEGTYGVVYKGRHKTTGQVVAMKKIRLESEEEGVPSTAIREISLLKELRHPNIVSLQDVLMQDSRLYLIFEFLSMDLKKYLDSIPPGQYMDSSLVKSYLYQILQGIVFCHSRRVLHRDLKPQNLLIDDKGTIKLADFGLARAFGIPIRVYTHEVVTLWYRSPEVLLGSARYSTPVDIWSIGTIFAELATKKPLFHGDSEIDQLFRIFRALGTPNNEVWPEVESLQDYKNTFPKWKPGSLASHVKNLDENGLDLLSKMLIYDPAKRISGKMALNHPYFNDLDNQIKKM
Sequence of CDK1/CyclinB1 (P14635 whole entry partner): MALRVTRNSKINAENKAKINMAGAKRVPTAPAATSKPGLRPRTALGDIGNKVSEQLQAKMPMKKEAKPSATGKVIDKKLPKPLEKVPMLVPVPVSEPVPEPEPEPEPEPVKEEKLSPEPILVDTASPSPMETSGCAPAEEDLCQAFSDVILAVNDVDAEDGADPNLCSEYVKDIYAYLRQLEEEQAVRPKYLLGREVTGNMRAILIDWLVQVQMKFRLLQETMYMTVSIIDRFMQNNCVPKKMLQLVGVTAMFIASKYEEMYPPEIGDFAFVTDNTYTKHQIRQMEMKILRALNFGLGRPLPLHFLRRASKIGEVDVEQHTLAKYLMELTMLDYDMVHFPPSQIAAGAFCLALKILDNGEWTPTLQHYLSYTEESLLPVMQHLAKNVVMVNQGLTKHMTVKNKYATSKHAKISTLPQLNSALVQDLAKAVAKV
Experimental: CDK1/CyclinB1 Enzyme Reaction System
as §1, with “CDK1/CyclinB1” for “CDK2/CyclinA2”, “(12.5” for “(1.6”, “(25” for “(50”, “adenosine triphosphate, 0.2” for “ATP, 0.1”, “120” for “60”, “seconds.” for “seconds”
as §2

[5] = molecular target: CDK2/CyclinE1 (Homo sapiens (Human), UniProt P24941); experiment: CDK2/CyclinE1 enzyme activity test (ADP-Glo); assay type: biochemical; settings: 150 μM ATP, 25° C. 60 minutes, read-out: CDK2/Cyclin E1 IC50
Experimental: CDK2/CyclinE1 Enzyme Reaction System
as §1, with “CDK2/CyclinE1” for “CDK2/CyclinA2”, “(2” for “(1.6”, “(150” for “(50”, “seconds.” for “seconds”
as §2

[6] = molecular target: CDK9/CyclinT1 (Homo sapiens (Human), UniProt P50750); experiment: CDK9/CyclinT1 enzyme activity test (ADP-Glo); assay type: biochemical; settings: 100 μM ATP, 25° C. 120 minutes, read-out: CDK 9/Cyclin T1 IC50
Sequence of CDK9/CyclinT1 (P50750 whole entry): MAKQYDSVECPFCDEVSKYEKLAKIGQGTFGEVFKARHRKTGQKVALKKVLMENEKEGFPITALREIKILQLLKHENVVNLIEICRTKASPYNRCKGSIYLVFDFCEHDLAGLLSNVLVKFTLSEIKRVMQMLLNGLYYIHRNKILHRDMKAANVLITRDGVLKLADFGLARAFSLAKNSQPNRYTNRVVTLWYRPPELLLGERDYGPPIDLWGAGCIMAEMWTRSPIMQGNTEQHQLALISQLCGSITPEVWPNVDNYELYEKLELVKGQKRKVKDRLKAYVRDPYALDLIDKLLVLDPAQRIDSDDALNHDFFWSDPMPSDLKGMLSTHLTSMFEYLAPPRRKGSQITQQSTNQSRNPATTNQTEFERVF
Sequence of CDK9/CyclinT1 (O60563 whole entry partner): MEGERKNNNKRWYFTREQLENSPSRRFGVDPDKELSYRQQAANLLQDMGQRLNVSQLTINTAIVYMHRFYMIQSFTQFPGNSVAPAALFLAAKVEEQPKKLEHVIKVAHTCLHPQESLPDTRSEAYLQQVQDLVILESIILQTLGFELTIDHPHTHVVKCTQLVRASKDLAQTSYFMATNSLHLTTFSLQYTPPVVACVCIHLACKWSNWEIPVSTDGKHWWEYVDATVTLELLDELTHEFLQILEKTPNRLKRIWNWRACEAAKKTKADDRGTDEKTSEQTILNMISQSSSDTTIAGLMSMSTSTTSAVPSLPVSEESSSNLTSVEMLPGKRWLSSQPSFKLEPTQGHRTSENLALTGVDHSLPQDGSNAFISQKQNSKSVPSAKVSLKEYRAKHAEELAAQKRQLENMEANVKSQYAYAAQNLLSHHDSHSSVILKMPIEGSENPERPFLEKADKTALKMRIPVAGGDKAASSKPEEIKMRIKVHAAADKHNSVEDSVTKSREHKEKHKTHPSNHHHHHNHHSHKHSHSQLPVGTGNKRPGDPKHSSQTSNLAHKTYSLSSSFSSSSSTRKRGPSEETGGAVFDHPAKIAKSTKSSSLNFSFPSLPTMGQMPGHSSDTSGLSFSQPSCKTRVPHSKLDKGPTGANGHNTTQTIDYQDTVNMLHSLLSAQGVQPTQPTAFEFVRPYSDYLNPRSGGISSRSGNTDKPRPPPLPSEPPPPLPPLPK
Experimental: CDK9/CyclinT1 Enzyme Reaction System
as §1, with “of CDK9/CyclinT1” for “of CDK2/CyclinA2”, “enzyme (4” for “enzyme (1.6”, “ATP (100” for “ATP (50”, “ATP, 0.2” for “ATP, 0.1”, “for 120” for “for 60”, “0.5 seconds.” for “0.5 seconds”
as §2

[7] = test system: OVCAR-3 cells; experiment: Cell activity test, anti-proliferation (CellTiter Glo), OVCAR-3; assay type: cell-based, human; settings: OVCAR-3, 7 days of culture
Experimental: 2) Day 1: Laying Cell Plates
(6) 0.7 mL of cell suspension was pipetted into the counting cup, the cells were counted on ViCell XR, and the cell suspension was diluted separately with culture medium to the required cell concentration for laying cell plates: 1000/30 ul.
(7) Microplates (2 plates) were required, 100 uL of phosphate buffered saline was added to the peripheral wells of the 384-well plate, 30 uL of cell suspension was added to the other wells, and the cell plate was placed into incubator for culture.
(1) Compound preparation: the stock solution of the compound to be tested was 10 mM.
(2) The compound to be tested was diluted 3 times with DMSO for 10 gradients.
(2) The compound to be tested was diluted with culture medium, and the highest final concentration was 10 μM.
(4) 10 μL of the compound was pipetted into the 384-well plate, and then the cell plate was placed back into the incubator for culture.
4) Adding CTG and Reading the Plate
(1) After 7 days of culture, 50 ul CellTiter Glo was added to the cell plate, shaken for 10 minutes in the dark, and left at room temperature for 5 minutes.
(2) The plate was read on Envision with the program: US LUM 384 (CPS). The experiment was originally stored in the personal disk:
1. The mean and standard deviation of 0% inhibition (DMSO row, ZPE) and 100% inhibition (PBS row, HPE) were calculated;
2. Inhibition rate (%)=(1−(sample value-average value of 100% inhibition)/(average value of 0% inhibition-average value of 100% inhibition))*100;
3. The curve was fitted by GraphPad 8.0 software;

[8] = Pharmacokinetic evaluation in CD-1 (ICR) mice, oral; assay type: in vivo, mouse; settings: male CD-1 (ICR) mice, oral 5 mg/kg, plasma
Experimental: Experimental Scheme of Compounds 18, 19 and 20
The healthy adult male CD-1 (ICR) mice used in this study were purchased from Pinghu Weitong Lihua Experimental Animal Technology Co., Ltd.
0.300 mL of the stock solution was measured and vortexed for 2 minutes to obtain a homogeneous suspension at a concentration of 1 mg/mL, and the administration vehicle was 1% HPMC in water.
Two male CD-1 (ICR) mice were given 5 mg/kg of the compound to be tested by intragastric administration.
The blood of two animals was collected at each time point by serial blood collection. 30 μL of whole blood was collected respectively at 0.25, 0.5, 1, 2, 4, 8, and 24 hours after administration. The whole blood was placed in an anticoagulant tube, centrifuged at 3200 g for 10 minutes at 4° C., plasma was prepared and stored at −60° C. or lower. The drug concentration in plasma was determined by LC/MS-MS.

[9] = test system: human ovarian cancer OVCAR-3 cells subcutaneous xenograft tumor; experiment: In vivo efficacy study, OVCAR-3 subcutaneous xenograft tumor BALB/c nude mouse model; settings: for Tumor volume (Day 0): Day 0 (at grouping), OVCAR-3 xenograft, BALB/c nude mice; for Tumor volume (Day 7): 10 mg/kg from day 0 to day 7; for Tumor volume (Day 14): 10 mg/kg from day 0 to day 14; for Tumor volume (Day 21): 10 mg/kg day 0 to day 14, 30 mg/kg from day 14 to day 21
Experimental: In vivo efficacy study of human ovarian cancer OVCAR-3 cells subcutaneous xenograft tumor BALB/c nude mouse model
Cell culture: Human ovarian cancer OVCAR-3 cells were monolayer cultured in vitro, the culture conditions were 10% fetal bovine serum, 100 U/mL Penicillin and 100 μg/mL Streptomycin were added in RPMI 1640 medium, cultured at 37° C. 5% CO2 incubator. Conventional digestion with trypsin-EDTA was performed for passage. When the cell saturation was 80%/90% and the number reached the required level, the cells were collected, counted, and inoculated.
Animals: BALB/c nude mice, female, 6-8 weeks old, weighed 18-22 grams. A total of 95 (42+ additional 53) animals were needed, provided by the Experimental Animal Management Department of Shanghai Institute of Family Planning Sciences (formerly Shanghai Sipulbichem).
Tumor inoculation: 0.2 mL (1×10^7) OVCAR-3 cells (with matrix glue, volume ratio of 1:1) were subcutaneously inoculated on the right back of each mouse, and the mice were grouped administrated when the average tumor volume reached about 150 mm^3.
Dosage and frequency of administration: Day 0 to Day 7, 10 mg/kg; Day 7 to Day 14, 10 mg/kg; Day 14 to Day 21, 30 mg/kg;
Experimental index: The experimental index was used to examine whether tumor growth was inhibited, delayed or cured. Tumor diameters were measured with vernier calipers twice a week. The calculation formula of tumor volume was: V=0.5a×b^2, wherein a and b represented the long and short diameters of the tumor, respectively.

Compound | IC50 [1] [nM] | IC50 [2] [nM] | IC50 [3] [nM] | IC50 [4] [nM] | IC50 [5] [nM] | IC50 [6] [nM] | IC50 [7] [nM] | Oral exposure AUC0-t [8] [µM·h] | Tumor volume (Day 0) [9] [mm^3] | Tumor volume (Day 7) [9] [mm^3] | Tumor volume (Day 14) [9] [mm^3] | Tumor volume (Day 21) [9] [mm^3]
C[C@@]1(O)CCC[C@H]1Nc1nccc2cnc(NC3CCN(S(C)(=O)=O)CC3)nc12 [Compound 1] | 0.56 | 3.9 | 2.28 | 2.72 | 1.67 |  |  |  |  |  |  | 
C[C@@]1(O)CCC[C@H]1Nc1nc(C(F)F)cc2cnc(NC3CCN(S(C)(=O)=O)CC3)nc12 [Compound 14] | 1.25 | 2.59 | 1.69 |  | 4.15 |  |  |  |  |  |  | 
CC(Nc1nc(C(F)F)cc2cnc(NC3CCN(S(C)(=O)=O)CC3)nc12)C(F)(F)F (stereo not shown) [Compound 18] |  | 1.56 | 1.32 |  | 4.72 |  | 17 | 2.365 | 151 | 233 | 393 | 529
C[C@@H]1CCCN1c1nc(C(F)F)cc2cnc(NC3CCN(S(C)(=O)=O)CC3)nc12 [Compound 25] |  |  | 0.46 |  | 4.02 |  | < 1 |  | 151 | 226 | 371 | 611

Now from value to molecule, other results behind:

IC50 [1] [nM] | IC50 [2] [nM] | IC50 [3] [nM] | IC50 [4] [nM] | IC50 [5] [nM] | IC50 [6] [nM] | Compound | IC50 [7] [nM] | Oral exposure AUC0-t [8] [µM·h] | Tumor volume (Day 0) [9] [mm^3] | Tumor volume (Day 7) [9] [mm^3] | Tumor volume (Day 14) [9] [mm^3] | Tumor volume (Day 21) [9] [mm^3]
0.52 | 1.08 | 1.56 |  |  |  | Cc1cc2cnc(NC3CCN(S(C)(=O)=O)CC3)nc2c(N[C@@H]2CCC[C@@]2(C)O)n1 (racemic) [Compound 6] |  |  |  |  |  | 
 | 0.46 | 0.34 | 8.48 | 4.32 | 15 | CS(=O)(=O)N1CCC(Nc2ncc3cc(C(F)F)nc(N[C@H]4CCCC4(F)F)c3n2)CC1 (single isomer, unassigned) [Compound 21] | 15 |  |  |  |  | 
0.27 | 1.5 | 1.49 |  |  |  | CS(=O)(=O)N1CCC(Nc2ncc3ccnc(NC4CCCC4)c3n2)CC1 [Compound 4] |  |  |  |  |  | 
